Values of other authors as cited in patent US20120184504A1, “"The Use of a PAR-1 Antagonist in Combination with a P2Y12 ADP Receptor Antagonist for Inhibition of Thrombosis"” (priority 2009, published 2012).
Read-outs that look alike come from different tables or passages of the source.

Legend:
[1] = tested on: clinical events and bleeding in patients with acute coronary syndromes; conditions: cited from earlier work
[2] = tested on: CFRs (coronary thrombus formation); conditions: pigs, cited from earlier work
[3] = tested on: ischemic events and bleeding in patients; conditions: two phase 2 trials; cited from earlier work

Compound: CC(=O)Oc1cc2c(s1)CCN(C(C(=O)C1CC1)c1ccccc1F)C2 (stereo not drawn) [prasugrel]
- remaining prevalence of clinical events [1]: 10%
- incremental reduction in clinical events ([1]; prasugrel versus clopidogrel): 19%

Compound: COC(=O)[C@H](c1ccccc1Cl)N1CCc2sccc2C1 [clopidogrel]
- effect on CFRs ([2]; clopidogrel alone 5 mg/kg): reduced, but did not completely abolish

Compound: CC(=O)Oc1ccccc1C(=O)O [aspirin]
- effect on CFRs ([2]; aspirin alone 7 mg/kg): reduced, but did not completely abolish

Compound: CCOC(=O)N[C@@H]1CC[C@@H]2[C@@H](C1)C[C@H]1C(=O)O[C@H](C)[C@H]1[C@H]2/C=C/c1ccc(-c2cccc(F)c2)cn1 [SCH 530348]
- bleeding [3]: without an accompanying increase in bleeding
- incidence of ischemic events [3]: strong trends towards reduced incidence of ischemic events
